According to patent publication US20210069199A1, “METHODS OF TREATING TRANSPLANT REJECTION” (priority 2015, published 2021):

What was measured:
JAK3 = molecular target: T1, JAK3 (Homo sapiens, UniProt P52333); conditions: cited from earlier work
T1 sequence (P52333 1-1124): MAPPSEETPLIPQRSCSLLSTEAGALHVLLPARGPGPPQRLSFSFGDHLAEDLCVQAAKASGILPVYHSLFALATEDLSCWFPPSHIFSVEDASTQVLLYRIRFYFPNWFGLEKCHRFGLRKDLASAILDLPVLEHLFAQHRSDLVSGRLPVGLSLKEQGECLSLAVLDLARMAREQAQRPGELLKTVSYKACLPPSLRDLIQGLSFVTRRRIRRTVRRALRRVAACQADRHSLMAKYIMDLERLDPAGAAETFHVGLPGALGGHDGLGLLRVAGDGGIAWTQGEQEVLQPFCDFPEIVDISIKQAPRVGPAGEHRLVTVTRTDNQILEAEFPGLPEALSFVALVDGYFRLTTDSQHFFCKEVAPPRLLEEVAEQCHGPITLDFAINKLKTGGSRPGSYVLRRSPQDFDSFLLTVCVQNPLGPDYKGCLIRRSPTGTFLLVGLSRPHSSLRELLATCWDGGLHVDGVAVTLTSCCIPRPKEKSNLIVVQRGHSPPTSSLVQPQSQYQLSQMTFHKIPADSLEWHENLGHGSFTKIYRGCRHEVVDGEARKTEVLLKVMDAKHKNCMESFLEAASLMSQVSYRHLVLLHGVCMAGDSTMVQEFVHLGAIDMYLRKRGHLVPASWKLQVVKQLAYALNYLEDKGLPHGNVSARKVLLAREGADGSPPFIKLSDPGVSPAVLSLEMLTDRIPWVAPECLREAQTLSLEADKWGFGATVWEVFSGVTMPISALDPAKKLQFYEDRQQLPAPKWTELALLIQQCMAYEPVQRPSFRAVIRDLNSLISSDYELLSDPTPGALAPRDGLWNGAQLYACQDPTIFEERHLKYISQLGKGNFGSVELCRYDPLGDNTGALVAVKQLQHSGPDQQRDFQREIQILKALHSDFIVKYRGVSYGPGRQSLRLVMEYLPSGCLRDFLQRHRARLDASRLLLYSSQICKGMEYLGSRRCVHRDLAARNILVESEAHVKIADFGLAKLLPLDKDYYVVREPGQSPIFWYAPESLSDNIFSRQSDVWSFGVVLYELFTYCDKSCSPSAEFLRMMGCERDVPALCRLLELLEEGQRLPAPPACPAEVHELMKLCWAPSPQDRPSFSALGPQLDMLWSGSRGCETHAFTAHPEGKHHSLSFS

human T-cells = test: allogeneic mixed leukocyte reaction, T-cell proliferation; format: cell-based; conditions: 2.5 μM, after 5 days of culture, DC:T-cell ratio 1:30; control 100%; P<0.0001
From the text: (§1) This offers a platform to reduce Th17 development, while promoting Treg populations.

[1] = tested on: human skin graft rejection by allogeneic human PBMC; test: human skin/NSG mouse xenograft model of solid organ graft rejection; format: in vivo
From the text: The inventors then evaluated whether JAK2 inhibition could prevent solid organ graft rejection, using a human skin/NSG mouse xenograft model. A 1×1 cm split-thickness human skin graft was transplanted onto the animal dorsally, followed by intraperitoneal injection of 5×10^6 allogeneic peripheral blood mononuclear cells (PBMC) 30 days after surgery.

IRAK1 = IRAK1 (Homo sapiens, UniProt P51617); conditions: cited from earlier work
iTregs = test: suppressive potency of iTregs generated with allogeneic DCs in the presence of drug; format: cell-based, human; conditions: iTregs generated with allogeneic DCs for 5 days with drug, then cultured with self T-cell responders and fresh DCs without drug
From the text: as §1

myelofibrosis patients = conditions: unlike JAK1/JAK2 inhibitors; cited from earlier work
GVHD in recipient mice = test: murine model of MHC-disparate allogeneic hematopoietic cell transplantation (GVHD); format: in vivo; conditions: 100 mg/kg twice a day by oral gavage for 4 weeks beginning on the day of MHC-disparate allo-HCT
[2] = tested on: IL-2 induced STATS phosphorylation; test: IL-2 induced STAT5 phosphorylation in human CD4+ T-cells; format: cell-based; conditions: 2.5 μM
From the text: as §1

STAT3 activity by IL-6 = STAT3 activity by IL-6 in human CD4+ T-cells; format: cell-based; conditions: 2.5 μM
From the text: as §1

CSF1R = CSF1R (Homo sapiens, UniProt P07333); conditions: cited from earlier work
Chain of CSF1R (P07333 20-972, species assumed): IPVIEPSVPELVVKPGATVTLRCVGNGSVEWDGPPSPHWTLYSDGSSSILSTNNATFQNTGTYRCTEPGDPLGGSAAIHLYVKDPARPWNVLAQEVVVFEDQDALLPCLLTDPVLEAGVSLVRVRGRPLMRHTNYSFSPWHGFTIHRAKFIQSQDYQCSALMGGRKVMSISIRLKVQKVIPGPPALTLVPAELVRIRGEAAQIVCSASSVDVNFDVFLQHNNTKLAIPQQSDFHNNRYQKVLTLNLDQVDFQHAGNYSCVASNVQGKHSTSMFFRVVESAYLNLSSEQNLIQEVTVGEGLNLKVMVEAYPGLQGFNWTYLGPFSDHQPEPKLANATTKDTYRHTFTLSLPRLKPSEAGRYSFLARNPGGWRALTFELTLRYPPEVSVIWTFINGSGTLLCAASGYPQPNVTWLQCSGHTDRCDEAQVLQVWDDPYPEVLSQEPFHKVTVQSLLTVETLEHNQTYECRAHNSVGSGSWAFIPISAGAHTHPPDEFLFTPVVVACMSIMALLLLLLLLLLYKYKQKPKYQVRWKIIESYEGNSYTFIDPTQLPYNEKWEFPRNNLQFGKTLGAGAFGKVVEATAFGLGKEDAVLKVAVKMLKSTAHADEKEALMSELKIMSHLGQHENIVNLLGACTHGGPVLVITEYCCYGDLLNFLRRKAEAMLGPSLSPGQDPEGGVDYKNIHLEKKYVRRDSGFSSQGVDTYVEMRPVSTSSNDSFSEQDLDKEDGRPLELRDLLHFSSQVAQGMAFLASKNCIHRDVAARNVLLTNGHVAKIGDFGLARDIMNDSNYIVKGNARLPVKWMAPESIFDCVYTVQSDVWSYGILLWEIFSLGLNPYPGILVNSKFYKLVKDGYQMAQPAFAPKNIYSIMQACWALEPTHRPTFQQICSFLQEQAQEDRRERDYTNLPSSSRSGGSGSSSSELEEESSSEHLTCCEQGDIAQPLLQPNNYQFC

Chain of IRAK1 (P51617 whole entry, species assumed): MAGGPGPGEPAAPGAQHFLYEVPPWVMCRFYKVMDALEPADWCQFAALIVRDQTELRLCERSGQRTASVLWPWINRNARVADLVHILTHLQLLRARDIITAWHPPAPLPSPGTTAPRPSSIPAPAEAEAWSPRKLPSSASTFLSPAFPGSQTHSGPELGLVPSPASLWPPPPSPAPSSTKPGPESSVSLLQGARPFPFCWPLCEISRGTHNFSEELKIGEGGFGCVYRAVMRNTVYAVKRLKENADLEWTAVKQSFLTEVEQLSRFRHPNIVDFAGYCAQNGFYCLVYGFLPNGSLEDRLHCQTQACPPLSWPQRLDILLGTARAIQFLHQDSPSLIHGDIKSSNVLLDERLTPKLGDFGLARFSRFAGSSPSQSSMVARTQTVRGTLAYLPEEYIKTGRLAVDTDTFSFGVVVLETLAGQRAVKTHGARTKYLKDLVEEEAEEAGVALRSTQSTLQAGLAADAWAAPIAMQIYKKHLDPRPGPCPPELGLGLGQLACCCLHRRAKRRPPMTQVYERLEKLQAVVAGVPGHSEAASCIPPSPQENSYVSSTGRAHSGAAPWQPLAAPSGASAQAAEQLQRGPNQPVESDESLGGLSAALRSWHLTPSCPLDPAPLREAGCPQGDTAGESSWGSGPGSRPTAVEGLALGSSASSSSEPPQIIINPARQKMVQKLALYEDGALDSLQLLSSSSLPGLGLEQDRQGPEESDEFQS

Compound: C1=C/COCc2cc(ccc2OCCN2CCCC2)Nc2nccc(n2)-c2cccc(c2)COC/1 [pacritinib, 11-(2-Pyrrolidinl-yl-ethoxy)-14,19-dioxa-5,7,26-triazatetracyclo[19.3.1.1^2,6.1^8,12] heptacosa-1(25),2(26),3,5,8,10,12(27),16,21,23-decaene]
- suppressive activity toward JAK3 (JAK3): has suppressive activity toward JAK3
- Mean proliferation (T-cell) (human T-cells): 23.7%
- Day 60 survival (graft) ([1]; 100 mg/kg twice a day oral gavage for 15 days from PBMC injection, vehicle 0%): 33.3%
- Median graft survival ([1]; 100 mg/kg twice a day oral gavage for 15 days from PBMC injection, vehicle 32.5 days, P=0.0011): 51 days
- lymphocytic infiltration of skin graft (H&E, CD3 IHC) ([1]; skin grafts at day +21, before onset of graft rejection): reduces lymphocytic infiltration of the tissue
- suppressive activity toward IRAK1 (IRAK1): has suppressive activity toward JAK3, CSF1R, and IRAK1
- suppressive potency of treated iTregs versus DMSO-treated iTregs (iTregs): similar
- myelosuppression (myelofibrosis patients): does not induce myelosuppression
- risk for opportunistic infections (myelofibrosis patients): does not induce myelosuppression or increase risk for opportunistic infections
- GVHD in recipient mice (GVHD in recipient mice): significantly reducing GVHD
- IL-2 induced STATS phosphorylation [2]: permitting IL-2 induced STATS phosphorylation
- STAT3 activity by IL-6 (STAT3 activity by IL-6): eliminated STAT3 activity by IL-6
- suppressive activity toward CSF1R (CSF1R): has suppressive activity toward JAK3, CSF1R
